{"source": "patent US12120996B2", "about": "“Induction method for improving yield and fertility of 2n pollen in Camellia oleifera” (Central South University of Forestry and Technology, priority 2024, dated 2024)", "key": {"[1]": {"test_system": "Camellia oleifera 'Huaxin' 2n pollen", "test": "2n pollen fertility rate (aceto-carmine staining) after precursor application and 45° C. high-temperature treatment of flower branches", "type": "in vivo", "details": "for 2n pollen fertility rate (%): 45° C.; for k1 (K1/4, mean 2n pollen fertility rate at level 1): level 1: DMTU 5 mg/L, mannitol 0.1 g/L, ascorbic acid 0.5 mg/L, brassinolide 2.0 mg/L, sucrose 5 g/L; for k2 (K2/4, mean 2n pollen fertility rate at level 2): level 2: DMTU 10 mg/L, ascorbic acid 1.0 mg/L, sucrose 10 g/L; for k3 (K3/4, mean 2n pollen fertility rate at level 3): level 3: DMTU 15 mg/L, mannitol 1.0 g/L, brassinolide 6.0 mg/L, sucrose 15 g/L; for k4 (K4/4, mean 2n pollen fertility rate at level 4): level 4: DMTU 20 mg/L, mannitol 2.0 g/L, ascorbic acid 2.0 mg/L, brassinolide 8.0 mg/L, sucrose 30 g/L", "description": "(§1) After the high-temperature treatment was released, Camellia oleifera grew naturally until anthers were pollinated. Pollen of each treatment was collected, and a temporary smear of the pollen was made by an aceto-carmine staining method and then photographed by an OlympusDP70 optical microscope; and a diameter of pollen in a temporary smear of each treatment was measured by Image J software, and a yield and a fertility rate of 2n pollen were counted.\n(§2) Pollen stained red by aceto-carmine was counted as fertile pollen, and pollen not stained red by aceto-carmine was counted as infertile pollen (as shown in FIG. 3).\n(§3) An occurrence frequency of 2n pollen was a ratio of an amount of 2n pollen to a total amount of pollen observed, and a fertility rate of 2n pollen was a ratio of an amount of fertile 2n pollen to a total amount of 2n pollen observed. […] When no high-temperature treatment is applied, an occurrence frequency of 2n pollen is 0.9%, and a fertility rate is 100%. • 2. […] Treatment conditions for 2n pollen in Camellia oleifera in the present disclosure: a leptotene stage to a pachytene stage of pollen mother cells, a style length: less than 2.57 mm, an induction temperature: 43° C. to 49° C., and an induction time: 3 h to 6 h.\n(§4) Flower branches with a style length developing to 1.97 mm<L≤2.27 mm and pollen mother cells at a leptotene stage to a pachytene stage were selected as target flower branches, and DMTU solutions with different concentrations were applied to the target flower branches, respectively; and a flower branch not treated with a DMTU solution was adopted as a control.\n(§5) The concentrations of the DMTU solutions were 1 mg/L, 5 mg/L, 10 mg/L, 15 mg/L, 20 mg/L, and 25 mg/L, respectively. Preparation method of a DMTU solution: DMTU was first dissolved with an appropriate amount of alcohol, and then water was added to a required concentration.\n(§6) The above DMTU solutions with different concentrations each were sprayed on a flower branch, where a DMTU solution was evenly sprayed on a flower branch by a sprayer until there were condensed water droplets flowing down from leaves or flower buds; and each treatment was numbered and recorded (as shown in Table 3).\n(§7) After each DMTU solution was applied, in order to avoid rapid evaporation of a solution on a leaf surface due to a high-temperature treatment, the whole flower branch was wrapped with a plastic film, and then the non-ex vivo tree branch bud heating device in the authorized patent (patent ZL200610113448.X) was immediately used to apply a 45° C. high-temperature treatment to each target flower branch for 4 h, namely, a high-temperature doubling treatment. A doubling treatment method was the same as the doubling treatment method in step 1.2 of Example 1.\n(§8) After a high-temperature treatment was conducted for 4 h, a heating bag and a plastic film were removed to release the high-temperature treatment, and Camellia oleifera was allowed to grow naturally until anthers were pollinated. Pollen of each treatment was collected, and a temporary smear of the pollen was made by an aceto-carmine staining method and then photographed by an Olympus DP70 optical microscope; and a diameter of pollen was measured by Image J software, and an occurrence frequency and a fertility rate of 2n pollen were counted.\n(§9) The above reagents were applied through spraying on a flower branch and injection into a flower bud. The spraying on a flower branch was as follows: a precursor solution was evenly sprayed on the flower branch by a sprayer until there were condensed water droplets flowing down from leaves or flower buds. The injection into a flower bud was as follows: a precursor solution was injected into the flower bud by a 5 mL syringe (0.5×20 mm injection needle) through a scale gap at a top of the flower bud until there were water droplets overflowing a surface of the flower bud. […]"}, "[2]": {"test_system": "Camellia oleifera 'Huaxin' 2n pollen", "test": "2n pollen yield (occurrence frequency) after precursor application and 45° C. high-temperature treatment of flower branches", "type": "in vivo", "description": "as §1, §2, §3, §4, §5, §6, §7, §8, §9"}, "[3]": {"details": "Injection into a flower bud, DMTU 10 mg/L, mannitol 0.5 g/L, ascorbic acid 1.5 mg/L, brassinolide 4.0 mg/L, 4 h (Example 2B)"}, "[4]": {"details": "Spraying on a flower branch, DMTU 10 mg/L, mannitol 0.5 g/L, ascorbic acid 1.5 mg/L, brassinolide 4.0 mg/L, 4 h (Example 2B)"}, "[5]": {"details": "mannitol 0.5 g/L, brassinolide 4.0 mg/L, in %"}, "[6]": {"details": "DMTU solution 1 mg/L sprayed on flower branch, 4 h"}, "[7]": {"details": "DMTU solution 5 mg/L sprayed on flower branch, 4 h"}, "[8]": {"details": "DMTU solution 10 mg/L sprayed on flower branch, 4 h (Example 2A)"}, "[9]": {"details": "DMTU solution 15 mg/L sprayed on flower branch, 4 h"}, "[10]": {"details": "DMTU solution 20 mg/L sprayed on flower branch, 4 h"}, "[11]": {"details": "DMTU solution 25 mg/L sprayed on flower branch, 4 h"}}}
{"smiles": "O=C1O[C@H]([C@@H](O)CO)C(O)=C1O", "note": "[Ascorbic acid, ascorbic acid]", "values": [{"measurement": "2n pollen fertility rate (%)", "setting": "[1]; [3]", "result": 81.26, "unit": "%"}, {"measurement": "2n pollen fertility rate (%)", "setting": "[1]; [4]", "result": 79.58, "unit": "%"}, {"measurement": "k1 (K1/4, mean 2n pollen fertility rate at level 1)", "setting": "[1]", "result": 80.47}, {"measurement": "k2 (K2/4, mean 2n pollen fertility rate at level 2)", "setting": "[1]; mannitol 0.5 g/L, brassinolide 4.0 mg/L", "result": 83.42}, {"measurement": "k3 (K3/4, mean 2n pollen fertility rate at level 3)", "setting": "[1]; ascorbic acid 1.5 mg/L", "result": 81.04}, {"measurement": "k4 (K4/4, mean 2n pollen fertility rate at level 4)", "setting": "[1]", "result": 80.24}, {"measurement": "2n pollen yield (%)", "setting": "[2]; [3]", "result": 10.05, "unit": "%"}, {"measurement": "2n pollen yield (%)", "setting": "[2]; [4]", "result": 9.76, "unit": "%"}]}
{"smiles": "CC(C)[C@H](C)[C@@H](O)[C@H](O)[C@@H](C)[C@H]1CC[C@H]2[C@@H]3COC(=O)[C@H]4C[C@H](O)[C@H](O)C[C@]4(C)[C@H]3CC[C@]12C", "note": "[Brassinolide, brassinolide]", "values": [{"measurement": "2n pollen fertility rate (%)", "setting": "[1]; [3]", "result": 84.13, "unit": "%"}, {"measurement": "2n pollen fertility rate (%)", "setting": "[1]; [4]", "result": 82.58, "unit": "%"}, {"measurement": "k1 (K1/4, mean 2n pollen fertility rate at level 1)", "setting": "[1]; in %", "result": 79.88}, {"measurement": "k2 (K2/4, mean 2n pollen fertility rate at level 2)", "setting": "[1]; [5]", "result": 82.98}, {"measurement": "k3 (K3/4, mean 2n pollen fertility rate at level 3)", "setting": "[1]; ascorbic acid 1.5 mg/L, in %", "result": 81.95}, {"measurement": "k4 (K4/4, mean 2n pollen fertility rate at level 4)", "setting": "[1]; in %", "result": 80.36}, {"measurement": "2n pollen yield (%)", "setting": "[2]; [3]", "result": 11.03, "unit": "%"}, {"measurement": "2n pollen yield (%)", "setting": "[2]; [4]", "result": 10.83, "unit": "%"}]}
{"smiles": "CNC(=S)NC", "note": "[DMTU, N,N′-Dimethylthiourea]", "values": [{"measurement": "2n pollen yields and fertility rates compared with the control", "setting": "[1]; 5 mg/L, 10 mg/L, 15 mg/L and 20 mg/L DMTU solutions sprayed on flower branches", "result": "significantly improved"}, {"measurement": "2n pollen fertility rate (%)", "setting": "[1]; [6]", "result": 64.25, "unit": "%"}, {"measurement": "2n pollen fertility rate (%)", "setting": "[1]; [7]", "result": 75.94, "unit": "%"}, {"measurement": "2n pollen fertility rate (%)", "setting": "[1]; [8]", "result": 86.23, "unit": "%"}, {"measurement": "2n pollen fertility rate (%)", "setting": "[1]; [9]", "result": 82.46, "unit": "%"}, {"measurement": "2n pollen fertility rate (%)", "setting": "[1]; [10]", "result": 78.61, "unit": "%"}, {"measurement": "2n pollen fertility rate (%)", "setting": "[1]; [11]", "result": 64.43, "unit": "%"}, {"measurement": "2n pollen fertility rate (%)", "setting": "[1]; [3]", "result": 90.14, "unit": "%"}, {"measurement": "2n pollen fertility rate (%)", "setting": "[1]; [4]", "result": 86.97, "unit": "%"}, {"measurement": "k1 (K1/4, mean 2n pollen fertility rate at level 1)", "setting": "[1]; in %", "result": 78.23}, {"measurement": "k2 (K2/4, mean 2n pollen fertility rate at level 2)", "setting": "[1]; [5]", "result": 87.54}, {"measurement": "k3 (K3/4, mean 2n pollen fertility rate at level 3)", "setting": "[1]; ascorbic acid 1.5 mg/L, in %", "result": 81.12}, {"measurement": "k4 (K4/4, mean 2n pollen fertility rate at level 4)", "setting": "[1]; in %", "result": 78.28}, {"measurement": "2n pollen yield (%)", "setting": "[2]; [6]", "result": 9.17, "unit": "%"}, {"measurement": "2n pollen yield (%)", "setting": "[2]; [7]", "result": 9.81, "unit": "%"}, {"measurement": "2n pollen yield (%)", "setting": "[2]; [8]", "result": 11.52, "unit": "%"}, {"measurement": "2n pollen yield (%)", "setting": "[2]; [9]", "result": 10.83, "unit": "%"}, {"measurement": "2n pollen yield (%)", "setting": "[2]; [10]", "result": 10.15, "unit": "%"}, {"measurement": "2n pollen yield (%)", "setting": "[2]; [11]", "result": 9.05, "unit": "%"}, {"measurement": "2n pollen yield (%)", "setting": "[2]; [3]", "result": 12.17, "unit": "%"}, {"measurement": "2n pollen yield (%)", "setting": "[2]; [4]", "result": 11.52, "unit": "%"}]}
{"smiles": "OC[C@@H](O)[C@@H](O)[C@H](O)[C@H](O)CO", "note": "[Mannitol, mannitol]", "values": [{"measurement": "2n pollen fertility rate (%)", "setting": "[1]; [3]", "result": 77.89, "unit": "%"}, {"measurement": "2n pollen fertility rate (%)", "setting": "[1]; [4]", "result": 75.94, "unit": "%"}, {"measurement": "k1 (K1/4, mean 2n pollen fertility rate at level 1)", "setting": "[1]; in %", "result": 81.64}, {"measurement": "k2 (K2/4, mean 2n pollen fertility rate at level 2)", "setting": "[1]; [5]", "result": 82.95}, {"measurement": "k3 (K3/4, mean 2n pollen fertility rate at level 3)", "setting": "[1]; ascorbic acid 1.5 mg/L, in %", "result": 80.98}, {"measurement": "k4 (K4/4, mean 2n pollen fertility rate at level 4)", "setting": "[1]; in %", "result": 79.59}, {"measurement": "2n pollen yield (%)", "setting": "[2]; [3]", "result": 9.68, "unit": "%"}, {"measurement": "2n pollen yield (%)", "setting": "[2]; [4]", "result": 9.81, "unit": "%"}]}
{"smiles": "OC[C@H]1O[C@@](CO)(O[C@H]2O[C@H](CO)[C@@H](O)[C@H](O)[C@H]2O)[C@@H](O)[C@@H]1O", "note": "[Sucrose, sucrose]", "values": [{"measurement": "k1 (K1/4, mean 2n pollen fertility rate at level 1)", "setting": "[1]; in %", "result": 80.87}, {"measurement": "k2 (K2/4, mean 2n pollen fertility rate at level 2)", "setting": "[1]; [5]", "result": 80.95}, {"measurement": "k3 (K3/4, mean 2n pollen fertility rate at level 3)", "setting": "[1]; ascorbic acid 1.5 mg/L, in %", "result": 82.91}, {"measurement": "k4 (K4/4, mean 2n pollen fertility rate at level 4)", "setting": "[1]; in %", "result": 80.44}]}
